Laboratory results reported in patent publication US20100292193A1, “RADIOPROTECTIVE DRUGS” (THE REGENTS OF THE UNIVERSITY OF CALIFORNIA, priority 2009, published 2010).

Legend:
[1] = system: TiL1 cells; test: Cell viability assay with irradiated TiL1 cells (ATPlite); type: cell-based; settings: 2Gy, ATPlite 24 hours after irradiation, normalized to vehicle control
Description: FIGS. 3A and 3B show radiation dose-responses of irradiated TiL1 cells treated with cyclopiazonic acid (CPA). Cell viability assay with TiL1 cells was measured using ATPlite reagent 24 h after irradiation with 2Gy. CPA was added to the cells 3 h before IR for protection (FIG. 3A) or 1 h after IR for mitigation (FIG. 3B) activities.
Dose-responses of irradiated cells treated with cyclopiazonic acid (CPA) were determined. A cell viability assay with TiL1 cells was measured using ATPlite reagent 24 hours after irradiation with 2Gy. CPA was added to the cells 3 h before irradiation for protection (FIG. 3A), or 1 hour after irradiation mitigation (FIG. 3B) activities. The percent cell viability plotted was normalized to vehicle control value. As shown in FIGS. 3A and 3B CPA both protects and mitigates TiL1 cell from radiation damage.

[2] = system: mice; test: Animal survival against a lethal dose total body irradiation; type: in vivo
Description: (§1) FIGS. 4A and 4B show the effect of CPA on animal survival against a lethal dose total body irradiation (TBI). FIG. 4A: Two oral administrations of CPA at 24 h and 1 h prior to irradiation at 8 Gy. FIG. 4B: CPA at 6 mg/kg or vehicle control was administered twice prior to irradiation as (FIG. 4A) along with un-irradiated control mice for Granulocyte-macrophage colony forming units.
The effect of CPA on animal survival against a lethal dose total body irradiation was determined. […] This effect was most prominent with CPA treatment at 6 mg/kg showing 89% survival while only 17% of controls survived.

[3] = system: bone marrow cells; test: Granulocyte-macrophage colony forming units from bone marrow after total body irradiation; type: in vivo, mice; settings: 6 mg/kg twice prior to irradiation; bone marrow collected 3 d after TBI, counted 8-9 d after plating; p<0.05 IR vs IR+CPA
Description: as §1
CPA at 6 mg/kg or vehicle control was administered twice prior to irradiation as described above along with un-irradiated control mice for Granulocyte-macrophage colony forming units.

[4] = system: TiL-1 cells; test: ROS scavenging: intracellular ROS after irradiation (DCF-DA); type: cell-based; settings: compound added 3 h before irradiation; DCF-DA 25 μM 1 h before; measured immediately after irradiation
Description: FIGS. 5A and 5B show the effect of CPA on ROS scavenging.
The effect of CPA on ROS scavenging was also evaluated. […] The intracellular ROS was measured immediately after irradiation in TiL-1 cells using 2′,7′-dichlorofluorescein diacetate (DCF-DA, Invitrogen). The compound and DCF-DA probe at 25 μM was added 3 h and 1 h before irradiation, respectively.

Compound | percent cell viability, mitigation activity ([1]; CPA added 1 hour after irradiation) | percent cell viability, protection activity ([1]; CPA added 3 h before irradiation) | survival ([2]; 6 mg/kg oral, 24 h and 1 h prior to irradiation at 8 Gy, 17% of controls survived) [%] | protection from radiation-induced death ([2]; two oral administrations at 24 h and 1 h prior to irradiation at 8 Gy) | Gm-CFU, protection of the immunohematopoietic system [3] | reduction of irradiation induced reactive oxygen species [4]
cyclopiazonic acid [CPA] | mitigates | protects | 89 | protected mice from radiation-induced death | protects the immunohematopoietic system | did not reduce
CC(C)(C)c1cc(O)c(C(C)(C)C)cc1O [di-tBHQ, 2,5-ditertbutylhydroquinone, reference compound] |  |  |  |  |  | did in dose-responsive manner
